Experimental data reported in PubChem BioAssay AID687005 (Broad Institute, 2013).
Inconclusive results are not listed. Calls of active or inactive are those of the source.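 The calls were made as follows: active = Compounds that reduce signal, with fitted half-maximal dose at or under twice the top valid tested dose; inconclusive = Poor fit, or flat curve losing 30 to 70% of signal; inactive = Potency past limit, flat within 30%, or opposite direction.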

Test: HEK293T cell cytotoxicity, dose response, cytotoxicity control, ATP luminescence, cherry-pick samples (AID 687005)
Details: HEK293T viability, ATP luminescence (CellTiter-Glo), 48 h; at 23.5 µM (top of the series)

SMILES	activity change, negative = cytotoxicity
CCCNC(=O)[C@@H]1[C@@H](CO)[C@@H]2Cn3c(cccc3=O)[C@H]1N2C(=O)Nc1cc(F)ccc1F	27.4% (inactive)
COc1cccc(S(=O)(=O)Nc2ccc3c(c2)[C@H]2C[C@@H](CC(=O)NC4CCCCC4)O[C@@H](CO)[C@H]2O3)c1	-20.2% (inactive)
C[C@H]1CN([C@@H](C)CO)C(=O)Cc2cc(NC(=O)Nc3ccccc3)ccc2O[C@@H]1CN(C)C(=O)Nc1ccc2c(c1)OCO2	-18.7% (inactive)
CC(C)NC(=O)N1CC[C@@H]2[C@@H](CO)N(C)c3ccc(-c4cccc(F)c4)cc3[C@@H]21	40.1% (inactive)
C[C@@H]1CCCCO[C@@H](CN(C)Cc2ccncc2)[C@@H](C)CN([C@@H](C)CO)C(=O)c2cc(NC(=O)c3ccncc3)ccc2O1	46.4% (inactive)

Same assay, conditions: HEK293T viability, ATP luminescence (CellTiter-Glo), 48 h; at 26 µM (top of the series)

SMILES	activity change, negative = cytotoxicity
C/C=C/c1ccc([C@@H]2[C@@H](CNC(=O)c3ccccc3)N(C(C)=O)[C@H]2CO)cc1	13.1% (inactive)
O=C(NC(=S)Nc1ccccc1N1CCOCC1)c1ccccc1F	-0.484% (inactive)
O=C(O)C[C@@H]1CC[C@@H]2[C@H](COC[C@H](O)CN2S(=O)(=O)c2ccc(F)cc2)O1	-25.9% (inactive)
COC(=O)C1=C(C)N(Cc2ccc(F)cc2)C(=S)NC1c1cccc(OC)c1 (centres undefined)	4.8% (inactive)
COc1ccccc1CNC(=O)C[C@@H]1C[C@@H]2c3cc(NC(=O)Nc4ccccc4F)ccc3O[C@@H]2[C@H](CO)O1	15.8% (inactive)
COc1cccc(S(=O)(=O)Nc2ccc3c(c2)[C@@H]2C[C@H](CC(=O)NC4CCCCC4)O[C@H](CO)[C@@H]2O3)c1	-27.9% (inactive)
Cc1ccc(C)c(NC(=O)C2(C)CCN2C(=O)C(C)C)c1 (centres undefined)	-19.7% (inactive)
CCCCNC(=S)N/N=C/c1ccc(C#N)cc1	-29.9% (inactive)
CCC(=O)N1[C@@H]2c3cccc(=O)n3C[C@H]1[C@H](CO)[C@H]2C(=O)NCc1ccccc1	-16.7% (inactive)
COc1ccc(-c2cnc3c(c2)C(=O)N([C@@H](C)CO)C[C@@H](C)[C@@H](CN(C)S(C)(=O)=O)O3)cc1	6.27% (inactive)
COc1cccc(S(=O)(=O)Nc2ccc3c(c2)[C@H]2C[C@H](CC(=O)NCc4ccccc4F)O[C@@H](CO)[C@H]2O3)c1	2.6% (inactive)
CC(C)NC(=O)Nc1cccc2c1O[C@@H](CN(C)C(=O)Nc1ccccc1)[C@@H](C)CN([C@@H](C)CO)C2=O	-13.9% (inactive)
CNC(=O)C[C@@H]1CC[C@@H]2[C@H](COC[C@@H](O)CN2C(=O)Nc2ccc3c(c2)OCO3)O1	25% (inactive)
CCS(=O)(=O)N1CCCCN2[C@H](CO)[C@@H](c3ccc(-c4ccc(C#N)cc4)cc3)[C@@H]2C1	2.55% (inactive)
C[C@H]1CN([C@@H](C)CO)C(=O)c2cccc(N(C)C)c2O[C@@H]1CN(C)C(=O)Nc1cccc2ccccc12	-6.36% (inactive)
CCC(=O)N(C)C[C@H]1Oc2cc(-c3ccccc3)ccc2S(=O)(=O)N([C@H](C)CO)C[C@H]1C	6.53% (inactive)
S=C(NCc1ccccc1)NCC1COc2ccccc2O1 (centres undefined)	-15.9% (inactive)
CC(C)NC(=O)Nc1ccc2c(c1)CC(=O)N([C@@H](C)CO)C[C@@H](C)[C@H](CN(C)C(=O)Nc1ccc3c(c1)OCO3)O2	50.2% (inactive)
O=C(CCN1CCCCC1)NCC[C@@H]1CC[C@H](NC(=O)c2ccc(F)cc2)[C@@H](CO)O1	9.77% (inactive)
Cc1cc(C(=O)Nc2ccc3c(c2)C(=O)N(C)[C@@H]2CC[C@@H](CC(=O)N[C@@H](C)c4ccccc4)O[C@@H]2CO3)no1	-33.4% (inactive)
O=C(COC(=O)CCC1CCCC1)Nc1nc2c(F)c(F)c(F)cc2s1	-8.53% (inactive)
COc1ccc(NC(=S)NCc2ccc(Cl)cc2)c(OC)c1	0.916% (inactive)

SMILES	activity change, negative = cytotoxicity
CCC(=O)N[C@H]1C=C[C@H](CC(=O)NCC2CCCCC2)O[C@@H]1CO	35.4% (inactive)
O=C(NC1CCCC1)N1CCCCN2[C@H](CO)[C@H](c3ccc(-c4cncnc4)cc3)[C@@H]2C1	-34.7% (inactive)
Cc1noc(C)c1NC(=O)N(C)C[C@H]1OCCCC[C@@H](C)Oc2ccc(NC(=O)NC(C)C)cc2C(=O)N([C@H](C)CO)C[C@H]1C	-10.9% (inactive)
COCC(=O)NC[C@@H]1N[C@@H](CO)[C@H]1c1ccc(C2=CCCC2)cc1	26.4% (inactive)
COc1cccc(NC(=S)N2CCC(Cc3ccccc3)CC2)c1	15.7% (inactive)
CC(=O)NC[C@@H]1[C@@H](c2ccc(C3=CCCC3)cc2)[C@@H](CO)N1C(=O)NC(C)C	6.26% (inactive)
Cc1ccccc1-n1ncc2c(SCC(=O)NCc3cccs3)ncnc21	-48.1% (inactive)
CC(=O)c1sc(NC(=O)c2cc(-c3ccccc3)nn2-c2ccccc2)nc1C	38.5% (inactive)
C[C@@H]1CN([C@H](C)CO)C(=O)c2cc(NS(=O)(=O)c3ccc(Cl)cc3)ccc2O[C@H]1CN(C)S(=O)(=O)c1ccc(F)cc1	38.8% (inactive)
C[C@H](CO)N1C[C@H](C)[C@@H](CN(C)Cc2ccc(Oc3ccccc3)cc2)Oc2ccc(NS(=O)(=O)c3cn(C)cn3)cc2CC1=O	-30.9% (inactive)
O=C(C[C@H]1CC[C@H]2[C@@H](COC[C@H](O)CN2C(=O)Nc2ccc3c(c2)OCO3)O1)N1CCN(c2ccccc2)CC1	5.63% (inactive)
CO[C@@H]1CN(C)C(=O)c2cc(NS(=O)(=O)C3CCCCC3)ccc2OC[C@H](C)NC[C@@H]1C	0.127% (inactive)
C/C=C/c1ccc([C@@H]2[C@@H](CNC(=O)C3CC3)N(C(=O)CC)[C@H]2CO)cc1	-5.25% (inactive)
CC1(C(=O)Nc2ccc3ccccc3c2)CCC(=O)N1C1CC1 (centres undefined)	-28.4% (inactive)
CC(C)NC(=O)Nc1ccc2c(c1)C(=O)N([C@@H](C)CO)C[C@@H](C)[C@H](CN(C)C(=O)c1ccncc1)OCCCC[C@H](C)O2	23.3% (inactive)
C[C@H]1CN([C@@H](C)CO)C(=O)c2cc(-c3cncnc3)cnc2O[C@H]1CN(C)C(=O)c1ccccc1F	4.74% (inactive)
CNC[C@H]1Oc2ncc(C#CCC(C)C)cc2C(=O)N([C@H](C)CO)C[C@H]1C	29% (inactive)
O=C(CSc1ncnc2c1cnn2-c1ccc(F)cc1)NC1CCCC1	-30.5% (inactive)
CCCNC(=O)N(C)C[C@@H]1Oc2ncc(C#CC3CCCCC3)cc2C(=O)N([C@H](C)CO)C[C@@H]1C	-14% (inactive)
COc1ccc(C#Cc2cnc3c(c2)C(=O)N([C@@H](C)CO)C[C@H](C)[C@@H](CN(C)C(=O)CC2CC2)O3)cc1	-34.7% (inactive)
C[C@@H]1CN([C@@H](C)CO)C(=O)c2cccc(NC(=O)C3CC3)c2O[C@@H]1CN(C)C	-4.49% (inactive)

Same assay, conditions: HEK293T viability, ATP luminescence (CellTiter-Glo), 48 h; at 28.5 µM (top of the series)

SMILES	activity change, negative = cytotoxicity
CNC(=O)CN(c1ccccc1)S(=O)(=O)c1ccc(F)cc1	-7.63% (inactive)
